Experimental data from patent US20060003951A1, “Anti-viral 7-deaza L-nucleosides” (Micrologix Biotech Inc., priority 2001, published 2006).

melting point: 214.8 to 215.5 °C
Structure (SMILES): Nc1ncnc2c1ccn2[C@@H]1C[C@@H](O)[C@H](CO)O1
